Data set [1] can be described thus: Compound tissue distribution experiment in rats (metabolites 2FM-UR, 2FM-UMP, 2FM-UTP by LC-MS/MS). The following applies: rat; for Active molecule 2FM-UTP in the blood and heart: lower limit of quantitation 5 ng/mL or 5 ng/g; for 2FM-UTP released in liver versus corresponding time points of sofosbuvir: 30 mg/Kg oral, p<0.01, FIG. 2; for 2FM-UMP released in the heart versus sofosbuvir: p<0.01, FIGS. 3A-3B. Type of data set: in vivo, Sprague Dawley rats. How it is done:
Sprague Dawley rats, male, weighing 180-300 g, were provided by Shanghai Xipuer-Beikai Experimental Animal Co., Ltd. Male animals were allowed to adapt to the environment for more than 3 days, and fasted for 12 hours before the experiment, but were free to drink water. PA2020, PA2024, PA2029 and sofosbuvir were respectively dissolved in a mixed solvent of Cremophor EL, ethanol and normal saline at a volume ratio of 10:10:80 to prepare corresponding solutions. Before the administration, the animals' weight was checked to determine whether the rats met the experimental requirements. Twelve rats were selected for grouping, 2 rats in each group, and 30 mg/kg of a drug solution was administered intragastrically to the rats. Samples were respectively collected at 0.5 h, 1 h, 3 h, 6 h, 12 h and 24 h after the administration. After the rats were euthanized with carbon dioxide, the blood was collected from the heart and stored in heparin anticoagulation tubes. The blood was centrifuged at 6,000 rpm and 4° C. for 5 min, and the supernatant plasma was taken and stored in dry ice. The kidney, liver and heart of the rats were collected and rinsed with normal saline pre-cooled at 4° C. and stored in dry ice after the water was drained. After the experiment, the samples were stored in a −80° C. refrigerator.
Due to the difference in polarity, 2FM-UR, 2FM-UMP and 2FM-UTP were separated and detected using different methods, so that the used LC-triple quadrupole mass spectrometry detectors, the pretreatment conditions, chromatographic and mass spectrometric conditions varied among these compounds.
In the ice bath, 50 μL of plasma was first mixed with 50 μL of internal standard solution (10% trichloroacetic acid solution of tenofovir at 500 ng/mL). After centrifugation at 13,000 rpm and 4° C. for 10 min, 20 μL of the supernatant was mixed with 180 μL of water, and 5 μL of the resulting solution was injected and analyzed by LC-MS/MS.
The kidney, liver and heart tissue were mixed with a buffer in a volume ratio of 1:5 and fully disrupted in the ice bath. 20 μL of the tissue homogenate was mixed with 20 μL of the internal standard solution (500 ng/mL of tenofovir in 10% trichloroacetic acid solution). After centrifugation at 13,000 rpm for 10 min at 4° C., 20 μL of the supernatant was mixed with 180 μL of water, and 5 μL of the resulting solution was injected and analyzed by LC-MS/MS.
LC-MS/MS-AJ (Triple Quad 5500, AB SCIEX) was used for sample analysis. Column: Acquity UPLC HSS T3 (2.1×50 mm, […]); column temperature: 40° C.; flow rate: 0.5 mL/min. Mobile phase A: 0.1% aqueous formic acid, mobile phase B: acetonitrile solution. Mass spectrometry conditions corresponding to the internal standard: electrospray ionization (ESI) positive ion mode, multiple reaction monitoring (MRM) monitoring ion pair m/z: 288/176 (tenofovir), 261/113 (2FM-UR); the temperature was 500° C.; the scanning time was 0.03 s; the collision energy was 15V.
In the ice bath, 30 μL of plasma was first mixed with 30 μL of internal standard solution (5% trichloroacetic acid solution of 100 ng/mL tolbutamide). After centrifugation at 13,000 rpm for 10 min at 4° C., 40 μL of the supernatant was mixed with 80 μL of water, and 5 μL of the injection was analyzed.
Kidney, liver, heart tissue: in the ice bath, tissue and 5 volumes of homogenization buffer of organ tissues (1.75 mL of methanol, 5 μL of 50% KOH solution and 0.75 mL of 268 mM EDTA solution, pH=8) were fully disrupted and mixed. 60 μL of tissue homogenate was mixed with 60 μl of internal standard solution (5% trichloroacetic acid solution of 100 ng/mL tolbutamide). After centrifugation at 13,000 rpm for 10 minutes at 4° C., 40 μL of the supernatant was mixed with 80 μL of water, and 5 μL of the injection was analyzed.
LC-MS/MS-AJ (Triple Quad 5500, AB SCIEX) was used for sample analysis. Column: ACE 3 AQ (2.1×50 mm); column temperature: 55° C.; flow rate: 0.45 mL/min. […]

In data set [2] the test system is human liver microsome (HLM). Kind of data set: Human liver microsomal metabolism in vitro (release of 2FM-UMP). Type of data set: in vitro ADME. Conditions: formation of 2FM-UMP, versus other candidate compounds of Table 3. An excerpt: The human liver microsome (HLM) used in this test was purchased from In Vitro Technologies (IVT) with a batch number of SSP X008070, which was a mixed liver microsome extracted from the liver tissues of 150 donors. The product description recorded that the metabolic activity of CYP3A4 in this batch of the human liver microsomes was 1.734 nmol/mg/min (the rate at which testosterone is metabolized to produce 6-β testosterone). The test compound was synthesized by Zhejiang Plato Pharmaceutical Technology Co., Ltd., and dissolved in methanol to prepare a storage solution having a concentration of 25 mM. The enzymatic reaction was carried out in a 100 mM KH2PO4 buffer solution (pH 7.4) at a test compound concentration of 25 μM and a human liver microsome concentration of 2 mg/ml. The reaction was initiated by the addition of NADPH (final concentration 2 mM). After reacting for 5 min in a constant temperature shaking water bath, the reaction was terminated by the rapid addition of methanol at a volume of 1.5 times that of the reaction mixture. The reaction solution was centrifuged at a maximum speed of 13,600 rpm using an Eppendorf bench top centrifuge for 20 min, and the supernatant was taken. And then the supernatant was dried by a nitrogen blower and redissolved in mobile phase A (aqueous solution containing 5 mM ammonium acetate and 0.05% formic acid v/v). The resulting sample was analyzed by LC-MS/MS (Waters, Acquity UPLC HSS T3 column).

The test system of a further data set is rat hepatocytes. The following applies: lamivudine triphosphate used as a reference; cited from earlier work.
[3] abbreviates: 30 mg/kg intragastric, within 24 h.
The mark [4] stands for this setting: 30 mg/kg intragastric, within 24 h, plasma.
[5] abbreviates: same dose (30 mg/kg), plasma, relative to sofosbuvir.

On to `CC(C)OC(=O)[C@H](C)N[P@](=O)(OC[C@H]1O[C@@H](n2ccc(=O)[nH]c2=O)[C@](C)(F)[C@@H]1O)Oc1ccccc1` [SFB, sofosbuvir, reference compound], for which the “Exposure amount of 2FM-UMP in heart (AUC0-t)” value in data set [1] (30 mg/kg intragastric, within 24 h, heart, N.D. = below 5 ng/g or 5 ng/mL) turned out to be 417 ng·h/g. Besides, in data set [1] (setting [3]), the “Exposure amount of 2FM-UMP in liver (AUC0-t)” value stood at 27128 ng·h/g and the “Exposure amount of 2FM-UTP in liver (AUC0-t)” value (“Exposure amount of 2FM-UTP” for short) came to 2691 ng·h/g. Also, the “Exposure amount of 2FM-UMP in plasma (AUC0-t)” value in data set [1] (setting [4]) amounted to 5680 ng·h/g. The “Active molecule 2FM-UTP in the blood and heart” value (“Active molecule 2FM-UTP” below) in data set [1] (30 mg/kg) is “could not be detected”.
For `C[C@@]1(F)[C@H](O)[C@@H](COP2(=O)OCC[C@H](c3cc(Cl)cc(Cl)c3)O2)O[C@H]1n1ccc(=O)[nH]c1=O` (stereo partly drawn) [PA2024], the “Transformation rate relative to other candidate compounds” value in data set [2] was “almost more than twice”. Also, the “2FM-UTP released in liver versus corresponding time points of sofosbuvir” value in data set [1] is on record as “significantly higher”. In addition, in data set [1] (setting [3]), the “Exposure amount of 2FM-UMP in liver (AUC0-t)” value amounted to 65242 ng·h/g and the “Exposure amount of 2FM-UTP” value was 9591 ng·h/g. Also, the “Exposure amount of 2FM-UMP in plasma (AUC0-t)” value in data set [1] (setting [4]) is 105 ng·h/g. The “2FM-UMP released in the heart versus sofosbuvir” value in data set [1] (30 mg/kg, heart) is on record as “less”. The “Active molecule 2FM-UTP” value in data set [1] (30 mg/kg) is reported as “could not be detected”.
Take `C[C@@]1(F)[C@H](O)[C@@H](COP2(=O)OCC[C@H](c3cc(F)cc(Cl)c3)O2)O[C@H]1n1ccc(=O)[nH]c1=O` (stereo partly drawn) [PA2020]: in data set [2], the “Transformation rate relative to other candidate compounds” value is reported as “almost more than twice”. In data set [1], the “2FM-UTP released in liver versus corresponding time points of sofosbuvir” value was “significantly higher”. Also, in data set [1] (setting [3]), the “Exposure amount of 2FM-UMP in liver (AUC0-t)” value was 102822 ng·h/g and the “Exposure amount of 2FM-UTP” value stood at 26682 ng·h/g. Moreover, in data set [1] (setting [4]), the “Exposure amount of 2FM-UMP in plasma (AUC0-t)” value was 439 ng·h/g. Also, the “2FM-UMP released in the heart versus sofosbuvir” value in data set [1] (30 mg/kg, heart) is given as “less”. The “Active molecule 2FM-UTP” value in data set [1] (30 mg/kg) was “could not be detected”.
Turning to `CCC(=O)O[C@@H]1[C@@H](COP2(=O)OCC[C@H](c3cccc(Cl)c3)O2)O[C@@H](n2ccc(=O)[nH]c2=O)[C@]1(C)F` (stereo partly drawn), the “Corresponding active triphosphate compound produced in rat hepatocytes” value in the data set on rat hepatocytes was 87.8 nmol/g.
Regarding `C[C@@]1(F)[C@H](O)[C@@H](COP2(=O)OCC[C@H](c3cc(Cl)ccc3F)O2)O[C@H]1n1ccc(=O)[nH]c1=O` (stereo partly drawn) [PA2029], the “Transformation rate relative to other candidate compounds” value in data set [2] is “almost more than twice”. In addition, the “2FM-UTP released in liver versus corresponding time points of sofosbuvir” value in data set [1] was “significantly higher”. Also, in data set [1] (setting [3]), the “Exposure amount of 2FM-UMP in liver (AUC0-t)” value worked out at 110339 ng·h/g and the “Exposure amount of 2FM-UTP” value was determined as 11820 ng·h/g. In addition, the “Exposure amount of 2FM-UMP in plasma (AUC0-t)” value in data set [1] (setting [4]) was 1451 ng·h/g. The “2FM-UMP released in the heart versus sofosbuvir” value in data set [1] (30 mg/kg, heart) is “less”. Also, the “2FM-UR released in the heart versus equivalent dose of sofosbuvir” value in data set [1] (30 mg/kg, heart, p<0.01, FIGS. 4A-4B) was “less”. Moreover, the “Active molecule 2FM-UTP” value in data set [1] (30 mg/kg) is recorded as “could not be detected”. Besides, in data set [1] (setting [5]), the “2FM-UMP concentration in plasma as fraction of sofosbuvir” value is “¼” and the “2FM-UR concentration in plasma relative to sofosbuvir” value was “approximately half”.

Source of the values: US11008361B2, “Liver-specific delivery-based anti-hepatitis C prodrug nucleoside cyclo-phosphate compound and uses thereof” (priority 2017, dated 2021).
